This note sets out measurements from ChEMBL document CHEMBL5046245, “Identification of Pyruvate Carboxylase as the Cellular Target of Natural Bibenzyls with Potent Anticancer Activity against Hepatocellular Carcinoma via Metabolic Reprogramming” (J Med Chem, 2022).

One data set deals with HepG2. The data set is described as follows: Effect on cell cycle arrest in human HepG2 cells assessed as decrease in accumulation of cells at G0/G1 phase incubated for 24 hrs by propidium iodide staining based flow cytometry analysis. Format: functional. Conditions: dose 20-80 nM.
In data set [1] the test system is HCCLM3. The data set is described as follows: Inhibition of mitochondrial oxidative stress in PC knockout human HCCLM3 cells assessed as reduction in NADH/NAD ratio at 10 nM. Type of data set: functional, cell-based.
Data set [2] has as its system HCCLM3. Put plainly: Induction of glycolysis in human HCCLM3 cells assessed as decrease in level of succinate at 5 nM. Type of data set: functional, cell-based.
Data set [3] in a line: Systemic toxicity in NCR-nu/nu mouse bearing human HCCLM3 tumor assessed as pathological change in heart at 25 to 50 mg/kg, ip administered alternate days for 21 days and measured 26 days post implantation by H and E staining based analysis. Conditions: in vivo, 504 h, dose 25-50 mg/kg, time 21 day. Type of data set: organism-based.
Data set [4] has as its system HCCLM3. Put plainly: Induction of apoptosis in human HCCLM3 cells assessed as cell shrinkage at 20 nM incubated for 24 hrs by DAPI staining based phase contrast microscopic analysis. Type of data set: functional.
The test system of data set [5] is HCCLM3. The data set is described as follows: Antitumor activity against human HCCLM3 cells xenografted in NCR-nu/nu mouse assessed reduction in tumor growth at 25 to 50 mg/kg, ip administered alternate days for 21 days and measured 26 days post implantation. Type of data set: functional, organism-based. The following applies: dose 25-50 mg/kg, time 21.0 day. A general note: In xenograft studies the graft and the host belong to different species.

Data set [6] relates to HCCLM3. Put plainly: Inhibition of mitochondrial oxidative stress in PC knockout human HCCLM3 cells assessed as reduction in […] ratio at 10 nM. Format: functional, cell-based.
Data set [7] deals with HCCLM3. The data set is described as follows: Induction of glycolysis in human HCCLM3 cells assessed as decrease in level of fumarate at 5 nM. Type of data set: functional, cell-based.
Data set [8] in a line: Inhibition of pyruvate carboxylase in human HCCLM3 cell lysate measured upto 24 hrs by PC assay kit. Type of data set: subcellular.

Usually pIC50 stands for −log10 of the IC50, conventionally taken in molar units. Read a low pIC50 as a high IC50.

pIC50: −log10 of the molar value. Activity calls are given as the source filed them. The rule behind the calls is not given here.

As to `COc1ccc(CCc2cc(OC)c(OC)c(OC)c2)cc1O`, the values for the Activity result (in the data set with HepG2; in data set [3]) were “Dose-Dependent Effect” and “Non-Toxic”, respectively. In addition, the inhibition entry in the data set with HCCLM3 [1] and in the data set with HCCLM3 [6] was “Active” in each case. The outcome in the data set on HCCLM3 [2], with HCCLM3 [4], in the data set on HCCLM3 [5] and with HCCLM3 [7] was Active. The same compound showed a pIC50 in data set [8] of 8.29.
